Assay results as given in US4001323A, “Water-soluble, non-ionizing hydroxy-containing amide derivatives of 2,4,6-triiodo-isophthalic acid” (Savac AG, priority 1974, dated 1977).
Converted amounts (≈) assume the structure as drawn.

Legend:
[1] = Solubility in water (Table I); assay type: physicochemical; settings: for solubility: water
Description: The following Examples are further illustrative of this invention. All solubility values are in grams per 100 ml unless stated otherwise.

[2] = Solubility in organic solvents; assay type: physicochemical
Description: (§1) 10 Ml of a solution containing 10 g Compound A was stored several days at 4° C, whereby only 2.3 g of the compound was precipitated.

[3] = Storage / supersaturation stability of aqueous solutions; assay type: physicochemical
Description: as §1
The residue was recrystallized from aqueous methanol and consisted of 11.6 g DL-5-α,β-dihydroxypropionylamino-2,4,6-triiodo-isophtalic acid di-(1,3-dihydroxyisopropylamide) (62.5% yield). It sintered and melted at 210° - 230° C and decomposed at 260° C. It gave an Rf value of 0.15 by thin layer chromatography on silica gel with chloroform/methanol/aqueous 25% ammonia 6:3:1. It was identified by elementary analysis for carbon and iodine which yielded values of 25.70% C and 48.29% I against 25.74% and 48.00% respectively calculated for C17 H22 I3 N3 O9.

rabbits = test: Acute intracisternal toxicity LD50 in rabbits; assay type: in vivo; settings: 400 mg I per ml
Description: (§2) The solutions injected for i.v., i.p., i.ci., and i.ca. toxicity tests contained 400 mg I per ml. The rate of injection was 20 mg I per kg and minute for i.v. and i.ca. toxicity. In the tests for i.ce. toxicity, the injected volume was 5ml/kg, and the concentration was varied. Results of i.v. and i.p. toxicity tests were evaluated after 12 days, results of i.ce. and i.ca. toxicity tests after 48 hours.

mice [4] = test: Acute toxicity LD50 in mice (i.v., i.p., i.ce.); assay type: in vivo; settings: for Toxicity, LD50, i.ce.: intracerebral, 5 ml/kg, concentration varied, evaluated after 48 hours; for Toxicity, LD50, i.p.: intraperitoneal; for Toxicity, LD50, i.p. / Toxicity, LD50, i.v.: 400 mg I per ml, evaluated after 12 days; for Toxicity, LD50, i.v.: intravenous, 20 mg I per kg and minute
Description: as §2

[5] = Viscosity of aqueous solutions; assay type: physicochemical
Description: Aqueous solutions of Compound A containing 300 and 400 mg iodine respectively had viscosities of 8.95 and 40.6 c.p. at 20°, 4.70 and 16.1 c.p. at 37° C. A low viscosity facilitates injection.

rats = test: Acute intracarotideal toxicity LD50 in rats; assay type: in vivo; settings: 400 mg I per ml, 20 mg I per kg and minute, evaluated after 48 hours
Description: as §2

[6] = Thermal stability of aqueous solutions; assay type: physicochemical; design: key to Appearance, initial / Appearance, 30 min. / Appearance, 15 hrs.: (1): Clear solution; (2): Colorless; (3): Slightly colored; (4): Brown suspension, black sediment; settings: 400 mg I per ml, under nitrogen, 120° C
Description: For a comparison of thermal stability, aqueous solutions of Compounds A and H containing 400 mg I per ml where heated under nitrogen at 120° C. pH, iodide ion concentration and appearance were determined initially, after 30 minutes and after 15 hours.

[7] = in vivo; cited from earlier work
mice [8] = settings: intravenous, literature; cited from earlier work
[9] = cited from earlier work
[10] = 20° C, read-out: Solubility in water at 20° C
[11] = 40° C, read-out: Solubility in water at 40° C
[12] = 60° C, read-out: Solubility in water at 60° C

Compound	Solubility in water (in words) [1]	solubility [1, 10]	solubility [1, 11]	solubility [1, 12]	Toxicity, LD50, i.ci. (rabbits)	Toxicity, LD50, i.ce. (mice [4])	Toxicity, LD50, i.v. (mice [4])	further results
5-α-acetoxypropionylamino-2,4,6-triiodo-isophthalic acid di-(2,2-dimethyl-1,3-dioxolan-4-yl-methylamide)	practically insoluble in water	–	–	–	–	–	–	–
C[C@H](O)C(=O)Nc1c(I)c(C(=O)NCC(O)CO)c(I)c(C(=O)NCC(O)CO)c1I (mixture of isomers) [Compound C, L-5-α-hydroxypropionylamino-2,4,6-triiodo-isophthalic acid di-(DL-2,3-dihydroxypropyl-amide)]	very easily soluble in water	157 mg/mL	210 mg/mL	400 mg/mL	–	–	–	Solubility in ethanol (in words) ([2]; ethanol): somewhat less soluble in ethanol
CC(O)C(=O)Nc1c(I)c(C(=O)NCC(O)CO)c(I)c(C(=O)NCC(O)CO)c1I (mixture of isomers) [Compound D, 5-DL-α-Hydroxypropionylamino-2,4,6-triiodo-isophthalic acid di-(DL-2,3-dihydroxypropylamide)]	somewhat less soluble than Compound C	140 mg/mL	200 mg/mL	340 mg/mL	–	–	–	Solubility in water at 20° C ([1]; 20° C): 14 g/100 ml; Solubility in water at 40° C ([1]; 40° C): 20 g/100 ml; Solubility in water at 60° C ([1]; 60° C): 34 g/100 ml
CC(O)C(=O)Nc1c(I)c(C(=O)NC(CO)CO)c(I)c(C(=O)NC(CO)CO)c1I (racemic) [Compound B, dl-5-α-hydroxypropionylamino-2,4,6triiodo-isophthalic acid di-(1,3-dihydroxyisopropylamide)]	–	300 mg/mL (≈ 386 mM)	300 mg/mL (≈ 386 mM)	320 mg/mL (≈ 412 mM)	–	–	–	–
O=C(NC(CO)CO)c1c(I)c(NC(=O)C(O)CO)c(I)c(C(=O)NC(CO)CO)c1I (racemic) [DL-5-α,β-dihydroxypropionylamino-2,4,6-triiodo-isophtalic acid di-(1,3-dihydroxyisopropylamide)]	good solubility in warm water	–	–	–	–	–	–	Stability of supersaturated solutions ([3]; 37° C, water): stable for several hours at 37 °C
C[C@H](O)C(=O)Nc1c(I)c(C(=O)NC(CO)CO)c(I)c(C(=O)NC(CO)CO)c1I [Compound A, L-5-α-Hydroxypropionylamino-2,4,6-triiodo-isophthalic acid di-(1,3-dihydroxyisopropylamide)]	very readily soluble in water	890 mg/mL (≈ 1150 mM)	1040 mg/mL (≈ 1340 mM)	1150 mg/mL (≈ 1480 mM)	250 mg I/kg	1500 mg I/kg	21800 mg I/kg	Solubility in ethanol (in words) ([2]; ethanol): miscible with boiling ethanol; Solubility in methanol ([2]; methanol): practically unlimited; solubility ([2]; organic solvent or mixture, ethanol, room temperature): ~100 mg/mL (≈ 129 mM); Toxicity, LD50, i.p. (mice [4]): 20000 mg I/kg; Amount precipitated from aqueous solution on storage ([3]; 10 ml of solution containing 10 g, several days at 4° C): 2.3 g; Viscosity of aqueous solution, 300 mg iodine, 20° C ([5]; 300 mg iodine, 20° C): 8.95 c.p.; Viscosity of aqueous solution, 300 mg iodine, 37° C ([5]; 300 mg iodine, 37° C): 4.70 c.p.; Viscosity of aqueous solution, 400 mg iodine, 20° C ([5]; 400 mg iodine, 20° C): 40.6 c.p.; Viscosity of aqueous solution, 400 mg iodine, 37° C ([5]; 400 mg iodine, 37° C): 16.1 c.p.; Toxicity, LD50, i.ca. (rats): 6500 mg I/kg; Appearance, 30 min. [6]: (1) (2); iodide ion concentration, 30 min. [6]: 0.3 mg I' per ml; pH, 30 min. [6]: 7.29; Appearance, 15 hrs. [6]: (1) (3); iodide ion concentration, 15 hrs. [6]: 1.8 mg I' per ml; pH, 15 hrs. [6]: 5.15; Appearance, initial [6]: (1) (2); iodide ion concentration, initial [6]: 0.15 mg I' per ml; pH, initial [6]: 7.43
CC(=O)Nc1c(I)c(C(=O)NCC(O)CO)c(I)c(C(=O)NCC(O)CO)c1I (stereo not shown) [Compound F, 5-acetylamino:2,4,6-triiodo-isophthalic acid di-(2,3-dihydroxypropylamide), reference compound]	poor solubility	5 mg/mL (≈ 6.69 mM)	8 mg/mL (≈ 10.7 mM)	15 mg/mL (≈ 20.1 mM)	–	–	–	–
CC(=O)Nc1c(I)c(C(=O)N[C@H]2C(O)O[C@H](CO)[C@@H](O)[C@@H]2O)c(I)c(N(C)C(C)=O)c1I (stereo partly shown) [Compound H, 3-acetylamino-5-N-methyl-acetylamino-2,4,6-triiodobenzoyl-glucosamine, reference compound]	–	~800 mg/mL (≈ 1010 mM)	–	–	100 mg I/kg	1400 mg I/kg	10200 mg I/kg	Toxicity, LD50, i.p. (mice [4]): 4800 mg I/kg; Toxicity (in words, known compound) [7]: relatively non-toxic; i.v. LD50 in mice (F.L. Weitl, 170th Am. Chem. Soc. meeting) (mice [8]): 23800 mg/kg; i.v. LD50 in mice (F.L. Weitl, 170th Am. Chem. Soc. meeting), as iodine (mice [8]): 11400 mg I per kg; Solubility in water (in words, known compounds) [9]: very soluble in water; Appearance, 30 min. [6]: (3); iodide ion concentration, 30 min. [6]: 1.71 mg I' per ml; pH, 30 min. [6]: 6.45; Appearance, 15 hrs. [6]: (4); iodide ion concentration, 15 hrs. [6]: 40.60 mg I' per ml; pH, 15 hrs. [6]: 2.65; Appearance, initial [6]: (1); iodide ion concentration, initial [6]: 0.66 mg I' per ml; pH, initial [6]: 6.54
O=S(=O)(CI)NC(CO)CO [Compound I, iodomethanesulfonic acid αγ-dihydroxyisopropylamide]	–	–	–	–	89 mg I/kg	385 mg I/kg	4700 mg I/kg	–
CNC(=O)c1c(I)c(NC(=O)CCCCC(=O)Nc2c(I)c(C(=O)O)c(I)c(C(=O)NC)c2I)c(I)c(C(=O)O)c1I [Compound K, 5,5'-adipoyldiimino-bis-(2,4,6-triiodo-N-methyl-isophthalamic acid)]	–	–	–	–	37 mg I/kg	280 mg I/kg	5500 mg I/kg	–
CC(=O)Nc1c(I)c(C(=O)NC(CO)CO)c(I)c(C(=O)NC(CO)CO)c1I [E, 5-acetylamino-2,4,6-triiodo-isophthalic acid di-(1,3-dihydroxisopropylamide), reference compound]	poor solubility	2 mg/mL (≈ 2.68 mM)	–	5 mg/mL (≈ 6.69 mM)	–	–	–	–
CC(=O)Nc1c(I)c(C(=O)N(C)CC(O)CO)c(I)c(C(=O)N(C)CC(O)CO)c1I (stereo not shown) [G, 5-acetylamino-2,4,6-triiodo-isophthalic acid di-(N-methyl-2,3-dihydroxypropylamide)]	–	550 mg/mL (≈ 710 mM)	–	–	81 mg I/kg	820 mg I/kg	15700 mg I/kg	–
